Experimental data published in patent publication US20060009478A1, “Methods for the treatment of back pain” (priority 2003, published 2006).

Tested on: patients with moderate to severe chronic low back pain
Experiment: Opioid-associated adverse events (constipation, nausea, vomiting, dizziness, somnolence, pruritus), low back pain study
[1] = event table, all occurrences, through the treatment period, ITT
[2] = event table, % of total number of events
[3] = through the treatment period, ITT population

COc1ccc2c3c1O[C@H]1C(=O)CC[C@@]4(O)[C@@H](C2)N(C)CC[C@]314 [OXY QID, oxycodone]
Number of events, all opioid-associated adverse events [1]: 2549
Number of events, all opioid-associated adverse events (by severity table) [1]: 2549
Number of events, constipation [1]: 576
Number of events, constipation, mild [1]: 430
Number of events, constipation, moderate [1]: 119
Number of events, constipation, severe [1]: 27
Number of events, dizziness [1]: 390
Number of events, dizziness, mild [1]: 314
Number of events, dizziness, moderate [1]: 63
Number of events, dizziness, severe [1]: 13
Number of events, gastrointestinal disorders [1]: 1143
Number of events, gastrointestinal disorders (by severity table) [1]: 1143
Number of events, nausea [1]: 459
Number of events, nausea, mild [1]: 336
Number of events, nausea, moderate [1]: 93
Number of events, nausea, severe [1]: 30
Number of events, nervous system disorders [1]: 952
Number of events, nervous system disorders (by severity table) [1]: 952
Number of events, pruritus [1]: 454
Number of events, pruritus, moderate [1]: 93
Number of events, pruritus, severe [1]: 13
Number of events, skin and subcutaneous tissue disorders [1]: 454
Number of events, skin and subcutaneous tissue disorders (by severity table) [1]: 454
Number of events, somnolence [1]: 562
Number of events, somnolence, mild [1]: 390
Number of events, somnolence, moderate [1]: 133
Number of events, somnolence, severe [1]: 39
Number of events, vomiting [1]: 108
Number of events, vomiting, mild [1]: 61
Number of events, vomiting, moderate [1]: 26
Number of events, vomiting, severe [1]: 21
% of all events, constipation, mild [2]: 16.9%
% of all events, constipation, moderate [2]: 4.7%
% of all events, constipation, severe [2]: 1.1%
% of all events, dizziness [2]: 15.3%
% of all events, dizziness, mild [2]: 12.3%
% of all events, dizziness, moderate [2]: 2.5%
% of all events, dizziness, severe [2]: 0.5%
% of all events, gastrointestinal disorders [2]: 44.8%
% of all events, gastrointestinal disorders (by severity table) [2]: 44.8%
% of all events, nausea [2]: 18.0%
% of all events, nausea, mild [2]: 13.2%
% of all events, nausea, moderate [2]: 3.6%
% of all events, nausea, severe [2]: 1.2%
% of all events, nervous system disorders [2]: 37.3%
% of all events, nervous system disorders (by severity table) [2]: 37.3%
% of all events, pruritus [2]: 17.8%
% of all events, pruritus, mild [2]: 13.7%
% of all events, pruritus, moderate [2]: 3.6%
% of all events, pruritus, severe [2]: 0.5%
% of all events, skin and subcutaneous tissue disorders [2]: 17.8%
% of all events, skin and subcutaneous tissue disorders (by severity table) [2]: 17.8%
% of all events, somnolence [2]: 22.0%
% of all events, somnolence, mild [2]: 15.3%
% of all events, somnolence, moderate [2]: 5.2%
% of all events, somnolence, severe [2]: 1.5%
% of all events, vomiting [2]: 4.2%
% of all events, vomiting, mild [2]: 2.4%
% of all events, vomiting, moderate [2]: 1.0%
% of all events, vomiting, severe [2]: 0.8%
% of patients reporting constipation [3]: 59.2%
% of patients reporting constipation, maximum severity mild [3]: 26.7%
% of patients reporting constipation, maximum severity moderate [3]: 20.9%
% of patients reporting constipation, maximum severity severe [3]: 11.7%
% of patients reporting dizziness [3]: 51.9%
% of patients reporting dizziness, maximum severity mild [3]: 29.6%
% of patients reporting dizziness, maximum severity moderate [3]: 16.0%
% of patients reporting dizziness, maximum severity severe [3]: 6.3%
% of patients reporting gastrointestinal disorders [3]: 77.7%
% of patients reporting gastrointestinal disorders (by maximum severity table) [3]: 77.7%
% of patients reporting nausea [3]: 58.3%
% of patients reporting nausea, maximum severity moderate [3]: 22.3%
% of patients reporting nausea, maximum severity severe [3]: 11.7%
% of patients reporting nervous system disorders [3]: 79.1%
% of patients reporting nervous system disorders (by maximum severity table) [3]: 79.1%
% of patients reporting pruritus, maximum severity mild [3]: 28.6%
% of patients reporting pruritus, maximum severity moderate [3]: 25.2%
% of patients reporting pruritus, maximum severity severe [3]: 6.3%
% of patients reporting somnolence [3]: 68.0%
% of patients reporting somnolence, maximum severity mild [3]: 23.3%
% of patients reporting somnolence, maximum severity moderate [3]: 29.1%
% of patients reporting somnolence, maximum severity severe [3]: 15.5%
% of patients reporting vomiting, maximum severity mild [3]: 9.7%
% of patients reporting vomiting, maximum severity moderate [3]: 7.8%
% of patients reporting vomiting, maximum severity severe [3]: 6.8%
Number of patients reporting constipation [3]: 122
Number of patients reporting constipation, maximum severity mild [3]: 55
Number of patients reporting constipation, maximum severity moderate [3]: 43
Number of patients reporting constipation, maximum severity severe [3]: 24
Number of patients reporting dizziness [3]: 107
Number of patients reporting dizziness, maximum severity mild [3]: 61
Number of patients reporting dizziness, maximum severity moderate [3]: 33
Number of patients reporting dizziness, maximum severity severe [3]: 13
Number of patients reporting gastrointestinal disorders [3]: 160
Number of patients reporting gastrointestinal disorders (by maximum severity table) [3]: 160
Number of patients reporting nausea [3]: 120
Number of patients reporting nausea, maximum severity mild [3]: 50
Number of patients reporting nausea, maximum severity moderate [3]: 46
Number of patients reporting nausea, maximum severity severe [3]: 24
Number of patients reporting nervous system disorders [3]: 163
Number of patients reporting nervous system disorders (by maximum severity table) [3]: 163
Number of patients reporting pruritus [3]: 124
Number of patients reporting pruritus, maximum severity mild [3]: 59
Number of patients reporting pruritus, maximum severity moderate [3]: 52
Number of patients reporting pruritus, maximum severity severe [3]: 13
Number of patients reporting skin and subcutaneous tissue disorders [3]: 124
Number of patients reporting skin and subcutaneous tissue disorders (by maximum severity table) [3]: 124
Number of patients reporting somnolence [3]: 140
Number of patients reporting somnolence, maximum severity mild [3]: 48
Number of patients reporting somnolence, maximum severity moderate [3]: 60
Number of patients reporting somnolence, maximum severity severe [3]: 32
Number of patients reporting vomiting [3]: 50
Number of patients reporting vomiting, maximum severity mild [3]: 20
Number of patients reporting vomiting, maximum severity moderate [3]: 16
Number of patients reporting vomiting, maximum severity severe [3]: 14
